Source: patent US10174013B2, “Benzimidazole derivatives as kinase inhibitors” (SELVITA S.A., priority 2012, dated 2019)
Where a name gives a salt, the structure may show the parent alone. Read-outs that look alike come from different tables or passages of the source.

How the values were obtained:
Pim-1 = Pim-1 (Homo sapiens (Human), UniProt P11309); assay: ADP-Glo Kinase Assay, Pim-1; assay type: biochemical; conditions: 1 μM compound; for inhibition at 1 µM: read-out: Pim-1 % INH (1 μM)
In short: (§1)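 Compounds were diluted in assay buffer to 1000 nM and incubated with kinase, substrate and ATP at apparent Km. Remaining ATP was depleted, ADP converted to ATP and detected by luciferase; percent inhibition came from normalized luminescence.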

Pim-2 = Pim-2 (Homo sapiens (Human), UniProt Q9P1W9); assay: ADP-Glo Kinase Assay, Pim-2; assay type: biochemical; conditions: 1 μM compound; for inhibition at 1 µM: read-out: Pim-2 % INH (1 μM)
In short: as §1

Pim-3 = Pim-3 (Homo sapiens (Human), UniProt Q86V86); assay: ADP-Glo Kinase Assay, Pim-3; assay type: biochemical; conditions: 1 μM compound; for inhibition at 1 µM: read-out: Pim-3 % INH (1 μM)
In short: as §1

FLT3wt = FLT3wt (Homo sapiens (Human), UniProt P36888); assay: ADP-Glo Kinase Assay, Flt3 wt; assay type: biochemical; conditions: 1 μM compound; for inhibition at 1 µM: read-out: Flt3wt % INH (1 μM)
In short: as §1

MV4-11 cells = assay: Growth inhibition, MTS assay, MV4-11; assay type: cell-based, Human; conditions: MTS cell viability, read-out: MV4-11 ED50
HEL92 cells = assay: Growth inhibition, MTS assay, HEL92; assay type: cell-based, Human; conditions: MTS cell viability, read-out: HEL92 ED50
Jeko-1 cells = assay: Growth inhibition, MTS assay, Jeko-1; assay type: cell-based, Human; conditions: 72 hours, MTS cell viability, read-out: Jeko-1 ED50
SW-480 cells = assay: Growth inhibition, MTS assay, SW-480; assay type: cell-based, Human; conditions: 72 hours, MTS cell viability, read-out: SW-480 ED50
MOLM16 cells = assay: Growth inhibition, MTS assay, MOLM16; assay type: cell-based, Human; conditions: MTS cell viability, read-out: MOLM 16 ED50
MOLM13 cells = assay: Growth inhibition, MTS assay, MOLM13; assay type: cell-based, Human; conditions: 72 hours, MTS cell viability, read-out: MOLM 13 ED50
KG-1 cells = assay: Growth inhibition, MTS assay, KG-1; assay type: cell-based, Human; conditions: 72 hours, MTS cell viability
From the text: The following cell lines, were obtained and used in tests as outlined below: • Human myelomonocytic, biphenotypic leukemia MV4-11 cells (harboring a Flt3-ITD mutation); • Human Acute Myeloid Leukemia MOLM16 cells; • Human Acute Myeloid Leukemia MOLM13 cells (harboring a Flt3-ITD mutation); • Human Myeloid Leukemia KG-1 cells; • Human erythroleukemia HEL92 cells; • Human mantle cell lymphoma Jeko-1 cells; • Human hepatocellular carcinoma HepG2 cells; and • Human colon adenocarcinoma SW-480 cells.
The assays were carried out according to the following protocol, which is described as an example for the MV4-11 cells:
Ten thousand MV4-11 cells were inoculated into each well of a 96-well microplate (manufactured by Corning Corp.) using Iscove's MDM medium (culture medium) containing 10% fetal calf serum (FCS). The same day, a dimethyl sulfoxide (DMSO) solution of each test compound prepared in a concentration of 10 mmol/L was further diluted with DMSO to the desired concentrations (0.1, 0.5, 1, 2.5, 5 and 10 micromol/L), and the diluted solution was added to each well. The individual wells were further cultured in 5% carbon dioxide at 37° C. for 72 hours. […] Briefly, 10 μl MTS (3-(4,5-Dimethyl-2-thiazolyl)-5-(carboxymethoxyphenyl)-2-(4-sulfophenyl)-2H-tetrazolium was added to each well, and culturing was performed in 5% carbon dioxide at 37° C. for 2 hours. After this incubation and using a microplate spectrophotometer (Synergy 2 multi-mode microplate reader (BioTek)), the absorbance of each well was measured at 490 nm. The value for cells not incubated with a test compound was designated as 100%. By comparing these values with the absorbance difference obtained at the well in which each test compound was added, the cell viability (% viability) after treatment with the test compound was calculated.

MV4-11 xenograft = MV4-11 xenograft in immunocompromised mice; assay type: in vivo
In short: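 MV4-11 leukemic cells engrafted in NOD/scid or SCID/beige mice; oral dosing started at tumor volume approx. 50-200 mm^3, daily QD or BID for 2-3 weeks. Efficacy read as tumor growth inhibition (TGI), tolerability as body weight change (ΔBW).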

FLT3-ITD = assay: ADP-Glo Kinase Assay, Flt3 ITD; assay type: biochemical, Human; conditions: 1 μM compound
Protocol: Compounds of the present invention were tested for their inhibitory activity against Pim-1, Pim-2, Pim-3, Flt3 wt, Flt3 ITD, CDK2/E and DYRK1. The testing of the compounds was carried out using the ADP-Glo™ Kinase Assay from Promega Corporation (Madison, Wis., USA).
The ADP-Glo™ Kinase Assay is a luminescent ADP detection assay to measure kinase activity by quantifying the amount of ADP produced during a kinase reaction. The kinase assay is performed in kinase assay buffer (5 mM MOPS, pH 7.5, 5 mM MgCl2, 0.4 mM EDTA, 1.5 mM DTT). Test samples initially dissolved in DMSO at 10 mM were diluted with the assay buffer to 1000 nM. A 30 μL volume/well of a mixture of substrates containing ATP (final ATP concentration in each kinase assay was equal to its apparent ATP Km).
The assay was performed in two steps: first, after the kinase reaction, an equal volume of ADP-Glo™ Reagent was added to terminate the kinase reaction and deplete the remaining ATP. Second, the Kinase Detection Reagent was added to simultaneously convert ADP to ATP and allowed the newly synthesized ATP to be measured using a luciferase/luciferin reaction. The luminescent signal generated was proportional to the ADP concentration produced and was correlated with kinase activity. A microplate spectrophotometer (Synergy 2 multi-mode microplate reader [BioTek]) was used for detecting the luminescence. The data was normalized and the percent of inhibition was obtained according to the following equation: […]

MV4-11 = assay: Combination study with anti-cancer agents, cell viability, MV4-11; conditions: for ED50 value in MV4-11: single agent, used as fixed concentration in combination study; for Effect of combination: 72 hours
Protocol: After this incubation, a cell viability assay was carried out according to the Manufacturer's instructions (CellTiter 96®AQueous Non-Radioactive Cell Proliferation Assay, Promega). The results were expressed as percentage of viable cells upon treatment with the individual drugs or the combination compared to the vehicle (DMSO) treated cells.

[1] = MV4-11 xenograft, oral, 150 mg/Kg QD
[2] = MV4-11 xenograft, oral, doses as in Table 3
[3] = MV4-11 xenograft, oral, 150 mg/Kg BID
[4] = MV4-11 xenograft, oral, 100 mg/Kg QD
[5] = MV4-11 xenograft, oral, 75 mg/Kg BID

Chain of FLT3wt (P36888 27-993): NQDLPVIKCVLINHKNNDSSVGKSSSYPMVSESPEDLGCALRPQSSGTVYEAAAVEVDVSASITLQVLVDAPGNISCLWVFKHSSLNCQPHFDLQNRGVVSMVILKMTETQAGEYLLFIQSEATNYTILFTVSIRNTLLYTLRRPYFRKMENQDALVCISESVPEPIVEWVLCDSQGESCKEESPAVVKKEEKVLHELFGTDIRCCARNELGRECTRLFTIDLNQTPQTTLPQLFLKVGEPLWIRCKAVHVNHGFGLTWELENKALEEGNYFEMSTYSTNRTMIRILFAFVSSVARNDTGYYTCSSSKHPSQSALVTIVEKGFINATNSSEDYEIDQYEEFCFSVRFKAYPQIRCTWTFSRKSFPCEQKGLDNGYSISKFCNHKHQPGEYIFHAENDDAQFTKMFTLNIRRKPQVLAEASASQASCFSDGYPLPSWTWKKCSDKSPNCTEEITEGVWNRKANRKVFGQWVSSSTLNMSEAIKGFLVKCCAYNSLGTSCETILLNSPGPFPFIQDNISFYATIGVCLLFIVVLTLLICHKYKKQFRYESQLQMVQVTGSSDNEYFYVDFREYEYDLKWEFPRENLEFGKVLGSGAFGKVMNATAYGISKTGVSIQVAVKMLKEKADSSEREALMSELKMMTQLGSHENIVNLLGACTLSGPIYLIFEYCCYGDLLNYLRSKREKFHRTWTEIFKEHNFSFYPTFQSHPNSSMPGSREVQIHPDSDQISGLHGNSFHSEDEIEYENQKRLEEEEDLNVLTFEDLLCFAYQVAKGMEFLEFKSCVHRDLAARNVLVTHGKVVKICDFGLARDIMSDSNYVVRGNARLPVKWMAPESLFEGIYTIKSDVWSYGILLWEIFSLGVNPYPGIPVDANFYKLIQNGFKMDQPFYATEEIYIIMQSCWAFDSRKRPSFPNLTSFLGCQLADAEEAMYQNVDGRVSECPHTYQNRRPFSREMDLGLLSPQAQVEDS
Chain of Pim-1 (P11309 whole entry): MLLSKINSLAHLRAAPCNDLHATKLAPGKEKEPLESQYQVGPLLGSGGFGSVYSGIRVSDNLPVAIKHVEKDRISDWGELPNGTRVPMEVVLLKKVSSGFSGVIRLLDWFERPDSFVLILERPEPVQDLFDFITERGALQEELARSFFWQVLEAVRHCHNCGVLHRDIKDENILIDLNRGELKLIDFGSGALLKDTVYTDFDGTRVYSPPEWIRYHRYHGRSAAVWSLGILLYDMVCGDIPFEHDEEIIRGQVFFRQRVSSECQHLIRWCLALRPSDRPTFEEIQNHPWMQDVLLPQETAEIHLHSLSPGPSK
Chain of Pim-2 (Q9P1W9 whole entry): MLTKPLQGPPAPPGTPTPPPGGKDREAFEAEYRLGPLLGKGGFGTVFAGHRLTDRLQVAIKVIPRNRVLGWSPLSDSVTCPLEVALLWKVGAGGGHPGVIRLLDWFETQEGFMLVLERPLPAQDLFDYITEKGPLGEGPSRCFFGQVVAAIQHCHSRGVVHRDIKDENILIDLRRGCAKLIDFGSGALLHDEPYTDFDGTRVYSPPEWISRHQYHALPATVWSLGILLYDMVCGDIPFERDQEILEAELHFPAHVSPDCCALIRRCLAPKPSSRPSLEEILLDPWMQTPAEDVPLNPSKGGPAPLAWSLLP

| Compound | inhibition at 1 µM (Pim-1) [%] | inhibition at 1 µM (Pim-2) [%] | inhibition at 1 µM (Pim-3) [%] | inhibition at 1 µM (FLT3wt) [%] | IC50 (MV4-11 cells; Homo sapiens, MV4-11, 72 h) [nM] | IC50 (HEL92 cells; Homo sapiens, 72 h) [nM] | IC50 (Jeko-1 cells; Homo sapiens, JeKo-1) [nM] | IC50 (SW-480 cells; Homo sapiens, SW480) [nM] | IC50 (MOLM16 cells; Homo sapiens, MOLM16, 72 h) [nM] | IC50 (MOLM13 cells; Homo sapiens, MOLM-13) [nM] | KG-1 ED50 (KG-1 cells) [nM] | TGI (tumor growth inhibition) (MV4-11 xenograft; [1]) [%] | ΔBW (body weight change) (MV4-11 xenograft; [1]) [%] | TGI (tumor growth inhibition) (MV4-11 xenograft; [2]) | Flt3ITD % INH (1 μM) (FLT3-ITD) [%] | further results |
| --- | --- | --- | --- | --- | --- | --- | --- | --- | --- | --- | --- | --- | --- | --- | --- | --- |
| CC(C)n1c(N2CCNCC2)nc2c([N+](=O)[O-])c(Br)c(Br)cc21 [Example 2A, 5,6-dibromo-4-nitro-2-(piperazin-1-yl)-1-(propan-2-yl)-1H-1,3-benzodiazole hydrochloride] | > 95 | 49 | 89 | 66 | 300 | 700 | 400 | 800 | 140 | 250 | 630 | 99 | −4.4 | exceeding 97% | – | – |
| Cl.O=[N+]([O-])c1c(Br)c(Br)cc2c1nc(N1CCNCC1)n2C1CCCC1 [Example 2D, 5,6-dibromo-1-cyclopentyl-4-nitro-2-(piperazin-1-yl)-1H-1,3-benzodiazole hydrochloride] | > 95 | 53 | > 95 | 55 | 600 | 4700 | – | 600 | – | – | – | 88 | −3.5 | above 87% | – | – |
| CCCn1c(N2CCNCC2)nc2c([N+](=O)[O-])c(Br)c(Br)cc21 [Example 1M] | – | – | – | – | – | – | – | – | – | – | – | – | – | more than 70% | – | Pim-1 % INH (1 μM) (Pim-1): >95%; Pim-2 % INH (1 μM) (Pim-2): 44%; Pim-3 % INH (1 μM) (Pim-3): 73%; Flt3wt % INH (1 μM) (FLT3wt): 46%; IC50 (MV4-11 cells; 72 hours): 600 nM; IC50 (HEL92 cells; 72 hours): 2200 nM; IC50 (SW-480 cells): 2100 nM; TGI (tumor growth inhibition) (MV4-11 xenograft; [3]): 76%; ΔBW (body weight change) (MV4-11 xenograft; [3]): 9.2% |
| CC(C)n1c(N2CCNC[C@H]2C)nc2c([N+](=O)[O-])c(Br)c(Br)cc21 [Example 1AX] | – | – | – | – | – | – | – | – | – | – | 120 | – | – | exceeding 97% | 96 | Pim-1 % INH (1 μM) (Pim-1): >95%; Pim-2 % INH (1 μM) (Pim-2): 77%; Pim-3 % INH (1 μM) (Pim-3): 95%; Flt3wt % INH (1 μM) (FLT3wt): 83%; IC50 (MV4-11 cells; 72 hours): 100 nM; IC50 (HEL92 cells; 72 hours): 100 nM; IC50 (Jeko-1 cells): >100 nM; IC50 (MOLM16 cells; 72 hours): 20 nM; IC50 (MOLM13 cells): 60 nM; TGI (tumor growth inhibition) (MV4-11 xenograft; [4]): 97%; ΔBW (body weight change) (MV4-11 xenograft; [4]): −2.2% |
| CCn1c(N2CCNCC2)nc2c([N+](=O)[O-])c(Br)c(Br)cc21 [Example 1A, 5,6-dibromo-1-ethyl-4-nitro-2-(piperazin-1-yl)-1H-1,3-benzodiazole hydrochloride] | 81 | 22 | 65 | 26 | – | – | 800 | 2500 | – | 700 | – | – | – | more than 70% | 81 | IC50 (MV4-11 cells; Homo sapiens, MV4-11, 72 hours): 500 nM; IC50 (HEL92 cells; Homo sapiens, 72 hours): 2600 nM; IC50 (MOLM16 cells; Homo sapiens, MOLM16, 72 hours): 500 nM; TGI (tumor growth inhibition) (MV4-11 xenograft; [5]): 73%; ΔBW (body weight change) (MV4-11 xenograft; [5]): 5.4%; ED50 value in MV4-11 (MV4-11): 500 nM; Effect of combination (MV4-11; with CAL-101, MV4-11 (Acute myeloid leukemia)): Synergistic |
| CC(C)n1c(N2CC[C@@H](N)C2)nc2c(C#N)c(Br)c(Br)cc21 [Example 1BI] | > 95 | 82 | 95 | 27 | 600 | 5100 | 700 | – | 80 | 3250 | 90 | 87 | 3.8 | above 87% | – | – |
| CC(C)n1c(C2CCNCC2)nc2c([N+](=O)[O-])c(Br)c(Br)cc21 [Example 26A, 5,6-dibromo-4-nitro-2-(piperidin-4-yl)-1-(propan-2-yl)-1H-1,3-benzodiazole] | > 95 | 68 | 90 | 65 | 200 | 900 | 300 | – | 220 | 320 | 470 | – | – | – | 93 | ΔBW (body weight change) (MV4-11 xenograft; MV-4-11 xenograft, 26A 25 mg/Kg BID): −6%; TGI (tumor growth inhibition) (MV4-11 xenograft; MV-4-11 xenograft, 26A 25 mg/Kg BID, 15 days): 77%; ΔBW (body weight change) (MV4-11 xenograft; MV-4-11 xenograft, 26A 50 mg/Kg BID): −3%; TGI (tumor growth inhibition) (MV4-11 xenograft; MV-4-11 xenograft, 26A 50 mg/Kg BID, 15 days): 87%; ED50 value in MV4-11 (MV4-11): 100 nM; Effect of combination (MV4-11; with C (Cytarabine), MV4-11 (Acute myeloid leukemia)): Synergistic; Effect of combination (MV4-11; with V (Vosaroxin), MV4-11 (Acute myeloid leukemia)): Synergistic |
